Reference: PubChem BioAssay (NCI)
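Each compound was tested at five concentrations against cells in 96-well plates for 48 hours. TGI is the concentration that stops growth completely.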 Where a SMILES comes first, the peptide text is derived from it. [ ]: non-standard residue; d: D form. The star is where a group is joined. ξ: configuration not given here. Propanoyl(3-(4-MeO-Ph)) = COc1ccc(CCC(=O)*)cc1; Thr(3ξ) = CC(O)[C@H](N)C(=O)O; dNMeL = CN[C@H](CC(C)C)C(=O)O; OBn = c1ccc(CO*)cc1; ξLac = CC(O)C(=O)O

Experiments:
Experiment in all cases: DTP human tumour cell line panel, 48 h
MDA-N = test system: MDA-N
SNB-75 CNS = test system: SNB-75 CNS
HCC-2998 colon = test system: HCC-2998 colon
SR leukemia = test system: SR leukemia
SNB-19 CNS = test system: SNB-19 CNS
BT-549 breast = test system: BT-549 breast
NCI-H522 lung = test system: NCI-H522 lung
MCF7 breast = test system: MCF7 breast
HOP-92 NSCLC = test system: HOP-92 NSCLC
M14 melanoma = test system: M14 melanoma

| SMILES | TGI (MDA-N) | TGI (SNB-75 CNS) | TGI (HCC-2998 colon) | TGI (SR leukemia) | TGI (SNB-19 CNS) | TGI (BT-549 breast) | TGI (NCI-H522 lung) | TGI (MCF7 breast) | TGI (HOP-92 NSCLC) | TGI (M14 melanoma) |
| --- | --- | --- | --- | --- | --- | --- | --- | --- | --- | --- |
| CC1(C)C[C@H](O)[C@H](O)[C@]23C(=O)O[C@H](O)[C@H]2C(C=O)=CC[C@@H]13 | > 100 µM | > 100 µM | > 100 µM | > 100 µM | > 100 µM | > 100 µM | > 100 µM | > 100 µM |  |  |
| CC[C@@]1(O)C(=O)OCc2c1cc1n(c2=O)Cc2c-1nc1ccccc1c2/C=N\NC(=O)C(N)Cc1cnc[nH]1 (some centres not stated) | > 100 µM | 36.5 µM | > 67.5 µM | 0.387 µM | > 100 µM | > 100 µM | > 19.7 µM | 35.3 µM | > 41.5 µM | 2.63 µM |
| Cc1ccc(S(=O)(=O)/N=C(\[O-])C2=C(c3ccccc3)NN(C)c3nc4cccc[n+]4nc32)cc1 | > 100 µM | > 100 µM | > 100 µM | > 100 µM | > 100 µM | > 100 µM | > 100 µM | > 100 µM | 81.9 µM | > 100 µM |
| CC(C)(C)OC(=O)NC(Cc1ccc(OCc2ccccc2)cn1)C(=O)N1CCSCC1 (configuration not stated) | > 100 µM | 76.5 µM | > 100 µM | 75.3 µM | > 100 µM | 71.7 µM | > 100 µM | > 100 µM | > 100 µM | > 100 µM |
| COc1ccc(N=C2C(=Nc3ccc(OC)cc3)N(S(=O)(=O)c3ccccc3)C(=S)N2c2ccc(OC)cc2)cc1 | > 100 µM | 38.8 µM | > 100 µM | > 100 µM | > 100 µM | > 100 µM | > 100 µM | > 100 µM | > 100 µM | > 100 µM |
| Cc1ccc(Nc2sc(C)cc2C#N)c([N+](=O)[O-])c1 | > 100 µM | > 100 µM | > 100 µM | > 100 µM | > 100 µM | > 100 µM | > 100 µM | > 100 µM | > 100 µM | > 100 µM |
| CC12CC3(O)OC(O1)C1(COC(=O)c4ccccc4)C3CC21OC1OC(CO)C(O)C(O)C1O (configuration not stated) | > 100 µM |  | > 100 µM | > 100 µM | > 100 µM | > 100 µM | > 100 µM | > 100 µM | > 100 µM | > 100 µM |
| O=c1[nH]c2ccc(CC(=S)N3CCN(c4ccccc4)CC3)cc2o1 | > 76.7 µM | > 94.7 µM | > 100 µM | > 100 µM | > 100 µM | > 100 µM | > 100 µM | > 100 µM | > 100 µM | > 100 µM |
| COc1cc(C2SCC(=O)N2c2ccc(Cl)cc2)cc(I)c1O (configuration not stated) | > 100 µM | > 100 µM | > 100 µM | > 100 µM | > 100 µM | > 100 µM | > 100 µM | > 100 µM | > 100 µM | > 100 µM |
| O=C(/C=C/c1cccs1)c1cccc(C(=O)/C=C/c2cccs2)n1 | > 100 µM | > 100 µM | > 100 µM | > 24.6 µM | > 85 µM | > 100 µM | > 100 µM | > 100 µM | > 100 µM | > 100 µM |
| CC1=C(C(=O)Nc2ccccc2)C(c2ccc(C)o2)C(C#N)=C(SCc2ccccc2)N1 (configuration not stated) | > 92.9 µM | > 100 µM | > 100 µM | > 68.6 µM | > 100 µM | > 100 µM | > 100 µM | > 100 µM | > 66.4 µM | > 100 µM |
| COc1ccc(CCC(=O)OC(C)[C@H](NC(=O)[C@@H](CC(C)C)N(C)C(=O)[C@@H]2CCCN2C(=O)C(C)O)C(=O)OCc2ccccc2)cc1 (some centres not stated) (H-[ξLac]P[dNMeL][Thr(3ξ)](Propanoyl(3-(4-MeO-Ph)))-OBn) | > 100 µM | 45.7 µM | > 100 µM | > 100 µM | > 100 µM | > 100 µM | 50.4 µM | > 100 µM | 41.6 µM | 30.6 µM |
| Nc1nc(N)c2nnn(C[C@H]3CC[C@@H](CO)C3)c2n1 | > 100 µM | > 100 µM | > 100 µM | > 100 µM | > 100 µM | > 100 µM | > 100 µM | > 100 µM | > 100 µM | > 100 µM |
| O=C1CCCCC[C@]12SC[C@H]1CON=C12 | 32.5 µM |  | > 100 µM | > 100 µM | > 100 µM | > 100 µM | 69.6 µM | 82.4 µM | 50.2 µM | 62 µM |
| C/C(=N\O)c1cccc(Nc2nc3ccccc3c3occc23)c1 | 27.9 µM | 32.3 µM | 28.9 µM | 35.1 µM | 39.8 µM | 26.9 µM |  | 37.1 µM | 20.2 µM | 29.7 µM |
| O=C(NCCCCNCCCNC(=O)c1cc(-c2ccccc2)nc2ccccc12)c1cc(-c2ccccc2)nc2ccccc12 | 3.23 µM |  | 3.09 µM | 6.09 µM |  | 37.5 µM | 3.08 µM | 3.07 µM | 3.01 µM |  |

| SMILES | TGI (MDA-N) | TGI (SNB-75 CNS) | TGI (HCC-2998 colon) | TGI (SR leukemia) | TGI (SNB-19 CNS) | TGI (BT-549 breast) | TGI (NCI-H522 lung) | TGI (MCF7 breast) | TGI (HOP-92 NSCLC) | TGI (M14 melanoma) |
| --- | --- | --- | --- | --- | --- | --- | --- | --- | --- | --- |
| O=C1OC(C2OC(=O)c3cc(O)c(O)c(O)c3-c3c(O)c(O)c4oc(=O)c5c(c(O)c(O)c6oc(=O)c3c4c65)-c3c(cc(O)c(O)c3O)C(=O)OCC2O)C2OC(=O)c3c(c(O)c(O)c(O)c3[C@H]2O)-c2c1cc(O)c(O)c2O (some centres not stated) | 53.8 µM | 63.7 µM | > 100 µM | 43.4 µM | > 100 µM | > 100 µM | 44.5 µM | 21.5 µM | 87.1 µM | 39.5 µM |
| CCn1c(-c2ccc(C)cc2)cs/c1=N\C(P(=O)(O)O)P(=O)(O)O | > 100 µM | > 100 µM | > 100 µM | > 100 µM | > 100 µM | > 100 µM | > 100 µM | > 100 µM | > 100 µM | > 100 µM |
| CSc1ccc(/C=C2\N=C(c3ccccc3)N(c3nc4c(Cl)cc(Cl)cc4s3)C2=O)cc1 | 36.1 µM | 62 µM | 94 µM | 50.3 µM | > 100 µM | 63.5 µM |  | > 100 µM | > 100 µM | 62.9 µM |
| O=C(N/N=C\c1ccc([N+](=O)[O-])cc1)Nc1cccc2ccccc12 | > 100 µM | > 28.8 µM | > 100 µM | > 100 µM | 29.4 µM | 23.4 µM | > 100 µM | > 80.9 µM | 16.7 µM | > 100 µM |
| CC1(C)C(=O)C2(OS(=O)(=O)C(F)(F)F)CCC1C2 (configuration not stated) | > 100 µM | > 100 µM | > 100 µM | > 100 µM | > 100 µM | > 100 µM |  | > 100 µM | > 100 µM | > 100 µM |
| NCCCc1c(-c2ccccc2)nc(N)[nH]c1=O | > 100 µM | > 100 µM | > 100 µM | > 100 µM | > 100 µM | > 100 µM | > 100 µM | > 100 µM | > 100 µM | > 100 µM |
| CN(C)CCNC(=O)c1ccc(NCCCN(C)CCCNc2ccc(C(=O)NCCN(C)C)c3[nH]c4ccc([N+](=O)[O-])cc4c(=O)c23)c2c(=O)c3cc([N+](=O)[O-])ccc3[nH]c12 | 0.997 µM | 1.21 µM | 0.254 µM | 1.91 µM | 0.649 µM | 2.64 µM |  | 0.655 µM | 0.933 µM | 2.09 µM |
| CC(=O)O[C@H]1C(=O)[C@@]2(C)[C@H]([C@H](OC(=O)c3ccccc3)[C@]3(O)C[C@H](OC(=O)[C@H](O)[C@@H](NC(=O)CC(C)C)c4ccccc4)C(C)=C1C3(C)C)[C@]1(OC(C)=O)CO[C@@H]1C[C@@H]2O | > 10 µM | 0.0253 µM | 0.0636 µM | 0.138 µM | > 10 µM | > 10 µM | 0.0135 µM | > 10 µM | 9.85 µM | > 10 µM |
| N#CC(N=Nc1ccccc1)c1nc2ccccc2o1 (configuration not stated) | > 100 µM |  | > 100 µM | > 100 µM | > 100 µM | 46 µM | > 100 µM | > 100 µM | 46.7 µM | > 100 µM |
| COC1(OC)C2(Cl)C(Cl)=C(Cl)C1(Cl)C1COCC12 (configuration not stated) | > 100 µM | > 100 µM | > 100 µM | > 100 µM | > 100 µM | > 100 µM | > 100 µM | > 100 µM | > 100 µM | > 100 µM |
| CCOP(=O)(OCC)/C(C#N)=C/c1cccn1N(C)C | > 100 µM | > 100 µM | > 100 µM | > 100 µM | > 100 µM | > 100 µM | > 100 µM | > 100 µM | > 100 µM | > 100 µM |
| Cc1ccc(O)c(-c2csc(NCN3CCN(CNc4nc(-c5cc(C)ccc5O)cs4)CC3)n2)c1 | > 100 µM | > 100 µM | > 100 µM | > 100 µM | > 100 µM | > 100 µM | > 100 µM | > 100 µM | > 100 µM | > 100 µM |
| O=C(CN1CCOCC1)CC(O)(C(F)(F)F)C(F)(F)F | > 100 µM | > 100 µM | > 100 µM | > 100 µM | > 100 µM | > 100 µM | > 100 µM | > 100 µM | 97.2 µM | > 100 µM |
| CCOC(=O)/C=C(\N=P(c1ccccc1)(c1ccccc1)c1ccccc1)C(F)(F)C(F)(F)C(F)(F)C(F)(F)C(F)(F)F | > 100 µM | > 100 µM | > 100 µM | > 100 µM | > 100 µM | > 100 µM |  | > 100 µM | > 100 µM | > 100 µM |
| CCc1n[nH]c(=O)n1NC(=O)c1ccccc1C(=O)O | > 100 µM | > 100 µM | > 100 µM | > 100 µM | > 100 µM | > 100 µM | > 100 µM | > 100 µM | > 100 µM | > 100 µM |
| COC(=O)c1ccc(CCc2cc(O)c(Br)cc2O)cc1 | 30 µM | > 59.6 µM | 32.9 µM | 14.4 µM | 33.1 µM | 15.8 µM | 12.3 µM | 28.1 µM | 28.2 µM | 29 µM |
